In ChEMBL document CHEMBL1201861, “Genomics of Drug Sensitity in Cancer screening data, Wellcome Trust Sanger Institute”:

Legend:
Assay in all cases: cells
COLO-741 = assay type: functional, cell-based; details: Homo sapiens
Description: SANGER: Inhibition of human COLO-741 cell growth in a cell viability assay.

COR-L105 = assay type: functional, cell-based; details: Homo sapiens
Description: SANGER: Inhibition of human COR-L105 cell growth in a cell viability assay.

CP66-MEL = assay type: functional, cell-based; details: Homo sapiens
Description: SANGER: Inhibition of human CP66-MEL cell growth in a cell viability assay.

Calu-3 = assay type: functional, cell-based; details: Homo sapiens
Description: SANGER: Inhibition of human Calu-3 cell growth in a cell viability assay.

DU-145 = assay type: functional, cell-based; details: Homo sapiens
Description: SANGER: Inhibition of human DU-145 cell growth in a cell viability assay.

EHEB = assay type: functional, cell-based; details: Homo sapiens
Description: SANGER: Inhibition of human EHEB cell growth in a cell viability assay.

EVSA-T = assay type: functional, cell-based, Homo sapiens; details: Homo sapiens, EVSA-T
Description: SANGER: Inhibition of human EVSA-T cell growth in a cell viability assay.

HCC1937 = assay type: functional, cell-based; details: Homo sapiens
Description: SANGER: Inhibition of human HCC1937 cell growth in a cell viability assay.

HCT-116 = assay type: functional, cell-based; details: Homo sapiens
Description: SANGER: Inhibition of human HCT-116 cell growth in a cell viability assay.

HO-1-N-1 = assay type: functional, cell-based; details: Homo sapiens
Description: SANGER: Inhibition of human HO-1-N-1 cell growth in a cell viability assay.

HuP-T4 = assay type: functional, cell-based; details: Homo sapiens
Description: SANGER: Inhibition of human HuP-T4 cell growth in a cell viability assay.

KYSE-410 = assay type: functional, cell-based; details: Homo sapiens
Description: SANGER: Inhibition of human KYSE-410 cell growth in a cell viability assay.

KYSE-520 cell line = assay type: functional, cell-based; details: Homo sapiens
Description: SANGER: Inhibition of human KYSE-520 cell growth in a cell viability assay.

M14 = assay type: functional, cell-based; details: Homo sapiens
Description: SANGER: Inhibition of human M14 cell growth in a cell viability assay.

MC-CAR = assay type: functional, cell-based, Homo sapiens; details: Homo sapiens, MC-CAR
Description: SANGER: Inhibition of human MC-CAR cell growth in a cell viability assay.

MC-IXC = assay type: functional, cell-based; details: Homo sapiens
Description: SANGER: Inhibition of human MC-IXC cell growth in a cell viability assay.

MDA-MB-175-VII = assay type: functional, cell-based; details: Homo sapiens
MDA-MB-231 = assay type: functional, cell-based; details: Homo sapiens
Description: SANGER: Inhibition of human MDA-MB-231 cell growth in a cell viability assay.

MKN-7 = assay type: functional, cell-based; details: Homo sapiens
Description: SANGER: Inhibition of human MKN7 cell growth in a cell viability assay.

MONO-MAC-6 = assay type: functional, cell-based, Homo sapiens; details: Homo sapiens, MONO-MAC-6
Description: SANGER: Inhibition of human MONO-MAC-6 cell growth in a cell viability assay.

NALM-6 = assay type: functional, cell-based, Homo sapiens; details: Homo sapiens, NALM-6
Description: SANGER: Inhibition of human NALM-6 cell growth in a cell viability assay.

NB12 = assay type: functional, cell-based; details: Homo sapiens
Description: SANGER: Inhibition of human NB12 cell growth in a cell viability assay.

NCI-H1417 = assay type: functional, cell-based, Homo sapiens; details: Homo sapiens, NCI-H1417
Description: SANGER: Inhibition of human NCI-H1417 cell growth in a cell viability assay.

NCI-H1792 = assay type: functional, cell-based; details: Homo sapiens
Description: SANGER: Inhibition of human NCI-H1792 cell growth in a cell viability assay.

NCI-H2196 = assay type: functional, cell-based, Homo sapiens; details: Homo sapiens, NCI-H2196; read-out: IC50
Description: SANGER: Inhibition of human NCI-H2196 cell growth in a cell viability assay.

NCI-H2405 = assay type: functional, cell-based; details: Homo sapiens
Description: SANGER: Inhibition of human NCI-H2405 cell growth in a cell viability assay.

NCI-H345 = assay type: functional, cell-based, Homo sapiens; details: Homo sapiens, NCI-H345
Description: SANGER: Inhibition of human NCI-H345 cell growth in a cell viability assay.

NCI-H719 = assay type: functional, cell-based, Homo sapiens; details: Homo sapiens, NCI-H719
Description: SANGER: Inhibition of human NCI-H719 cell growth in a cell viability assay.

NCI-H889 = assay type: functional, cell-based, Homo sapiens; details: Homo sapiens, NCI-H889
Description: SANGER: Inhibition of human NCI-H889 cell growth in a cell viability assay.

OAW-42 = assay type: functional, cell-based; details: Homo sapiens
Description: SANGER: Inhibition of human OAW-42 cell growth in a cell viability assay.

OE33 = assay type: functional, cell-based; details: Homo sapiens
Description: SANGER: Inhibition of human OE33 cell growth in a cell viability assay.

OVCAR-8 = assay type: functional, cell-based; details: Homo sapiens
Description: SANGER: Inhibition of human OVCAR-8 cell growth in a cell viability assay.

PA-1 = assay type: functional, cell-based; details: Homo sapiens
Description: SANGER: Inhibition of human PA-1 cell growth in a cell viability assay.

PANC-03-27 = assay type: functional, cell-based; details: Homo sapiens
Description: SANGER: Inhibition of human PANC-03-27 cell growth in a cell viability assay.

PFSK-1 = assay type: functional, cell-based; details: Homo sapiens
Description: SANGER: Inhibition of human PFSK-1 cell growth in a cell viability assay.

RMG-I = assay type: functional, cell-based; details: Homo sapiens
Description: SANGER: Inhibition of human RMG-I cell growth in a cell viability assay.

RT-112 = assay type: functional, cell-based; details: Homo sapiens
Description: SANGER: Inhibition of human RT-112 cell growth in a cell viability assay.

Raji = assay type: functional, cell-based, Homo sapiens; details: Homo sapiens, Raji
Description: SANGER: Inhibition of human Raji cell growth in a cell viability assay.

SCLC-21H = assay type: functional, cell-based, Homo sapiens; details: Homo sapiens, SCLC-21H
Description: SANGER: Inhibition of human SCLC-21H cell growth in a cell viability assay.

SF-295 = assay type: functional, cell-based; details: Homo sapiens
Description: SANGER: Inhibition of human SF295 cell growth in a cell viability assay.

SNU-449 = assay type: functional, cell-based; details: Homo sapiens
Description: SANGER: Inhibition of human SNU-449 cell growth in a cell viability assay.

T-24 = assay type: functional, cell-based; details: Homo sapiens
Description: SANGER: Inhibition of human T-24 cell growth in a cell viability assay.

T47D = assay type: functional, cell-based; details: Homo sapiens
Description: SANGER: Inhibition of human T47D cell growth in a cell viability assay.

8305C = assay type: functional, cell-based; details: Homo sapiens
Description: SANGER: Inhibition of human 8305C cell growth in a cell viability assay.

A2058 = assay type: functional, cell-based; details: Homo sapiens
Description: SANGER: Inhibition of human A2058 cell growth in a cell viability assay.

A-427 = assay type: functional, cell-based; details: Homo sapiens
Description: SANGER: Inhibition of human A427 cell growth in a cell viability assay.

ARH-77 = assay type: functional, cell-based, Homo sapiens; details: Homo sapiens, ARH-77
Description: SANGER: Inhibition of human ARH-77 cell growth in a cell viability assay.

ASPC1 = assay type: functional, cell-based; details: Homo sapiens
Description: SANGER: Inhibition of human AsPC-1 cell growth in a cell viability assay.

BCPAP = assay type: functional, cell-based; details: Homo sapiens
Description: SANGER: Inhibition of human BCPAP cell growth in a cell viability assay.

BHT-101 = assay type: functional, cell-based; details: Homo sapiens
Description: SANGER: Inhibition of human BHT-101 cell growth in a cell viability assay.

BOKU = assay type: functional, cell-based; details: Homo sapiens
Description: SANGER: Inhibition of human BOKU cell growth in a cell viability assay.

C3A = assay type: functional, cell-based; details: Homo sapiens
Description: SANGER: Inhibition of human C3A cell growth in a cell viability assay.

CAKI-1 = assay type: functional, cell-based; details: Homo sapiens
Description: SANGER: Inhibition of human CAKI-1 cell growth in a cell viability assay.

CAL-27 = assay type: functional, cell-based; details: Homo sapiens
Description: SANGER: Inhibition of human CAL-27 cell growth in a cell viability assay.

CAL-62 = assay type: functional, cell-based; details: Homo sapiens
Description: SANGER: Inhibition of human CAL-62 cell growth in a cell viability assay.

U-698-M = assay type: functional, cell-based, Homo sapiens; details: Homo sapiens, U-698-M
Description: SANGER: Inhibition of human U-698-M cell growth in a cell viability assay.

UACC-812 = assay type: functional, cell-based; details: Homo sapiens
Description: SANGER: Inhibition of human UACC-812 cell growth in a cell viability assay.

WM-115 = assay type: functional, cell-based; details: Homo sapiens
Description: SANGER: Inhibition of human WM-115 cell growth in a cell viability assay.

COLO-679 = assay type: functional, cell-based; details: Homo sapiens
Description: SANGER: Inhibition of human COLO-679 cell growth in a cell viability assay.

## C/C(=C\c1csc(C)n1)[C@@H]1C[C@@H]2O[C@]2(C)CCC[C@H](C)[C@H](O)[C@@H](C)C(=O)C(C)(C)[C@@H](O)CC(=O)O1 [PATUPILONE]
COLO-741
  IC50: 2.72 nM
COR-L105
  IC50: 9.54 nM
CP66-MEL
  IC50: 11.7 nM
Calu-3
  IC50: 1.68 nM
DU-145
  IC50: 0.721 nM
EHEB
  IC50: 28.9 nM
EVSA-T
  IC50: 30.7 nM
HCC1937
  IC50: > 32 nM
HCT-116
  IC50: 4.69 nM
HO-1-N-1
  IC50: 1.66 nM
HuP-T4
  IC50: 2.54 nM
KYSE-410
  IC50: 1.02 nM
KYSE-520 cell line
  IC50: 10.4 nM
M14
  IC50: > 32 nM
MC-CAR
  IC50: 9.73 nM
MC-IXC
  IC50: 3.06 nM
MDA-MB-175-VII
  IC50: > 32 nM
MDA-MB-231
  IC50: 24.6 nM
MKN-7
  IC50: > 32 nM
MONO-MAC-6
  IC50: 17.4 nM
NALM-6
  IC50: 2.18 nM
NB12
  IC50: > 32 nM
NCI-H1417
  IC50: 21 nM
NCI-H1792
  IC50: 8.28 nM
NCI-H2196
  IC50: > 32 nM
NCI-H2405
  IC50: 12.7 nM
NCI-H345
  IC50: > 32 nM
NCI-H719
  IC50: > 32 nM
NCI-H889
  IC50: > 32 nM
OAW-42
  IC50: 2.18 nM
OE33
  IC50: 7.63 nM
OVCAR-8
  IC50: 1.06 nM
PA-1
  IC50: 0.174 nM
PANC-03-27
  IC50: 0.132 nM
PFSK-1
  IC50: 13.3 nM
RMG-I
  IC50: > 32 nM
RT-112
  IC50: 0.614 nM
Raji
  IC50: > 32 nM
SCLC-21H
  IC50: 7.59 nM
SF-295
  IC50: 1.92 nM
SNU-449
  IC50: 1.91 nM
T-24
  IC50: 20.6 nM
T47D
  IC50: > 32 nM
8305C
  IC50: 2.32 nM
A2058
  IC50: 0.601 nM
A-427
  IC50: 0.828 nM
ARH-77
  IC50: 6.13 nM
ASPC1
  IC50: > 32 nM
BCPAP
  IC50: 0.581 nM
BHT-101
  IC50: 1.52 nM
BOKU
  IC50: > 32 nM
C3A
  IC50: 3.42 nM
CAKI-1
  IC50: 17.3 nM
CAL-27
  IC50: 1.39 nM
CAL-62
  IC50: 0.875 nM
U-698-M
  IC50: 7.76 nM
UACC-812
  IC50: > 32 nM
WM-115
  IC50: > 32 nM
COLO-679
  IC50: 0.394 nM

## COc1ccc(-c2cc3nccn3c(Nc3ncccc3C(N)=O)n2)cc1OC
COLO-741
  IC50: > 8000 nM
COR-L105
  IC50: 1140 nM
CP66-MEL
  IC50: > 8000 nM
Calu-3
  IC50: > 8000 nM
DU-145
  IC50: 7970 nM
EHEB
  IC50: 3790 nM
EVSA-T
  IC50: > 8000 nM
HCC1937
  IC50: > 8000 nM
HCT-116
  IC50: 3980 nM
HO-1-N-1
  IC50: > 8000 nM
HuP-T4
  IC50: 7990 nM
KYSE-410
  IC50: 7220 nM
KYSE-520 cell line
  IC50: > 8000 nM
M14
  IC50: > 8000 nM
MC-CAR
  IC50: 1140 nM
MC-IXC
  IC50: > 8000 nM
MDA-MB-175-VII
  IC50: > 8000 nM
MDA-MB-231
  IC50: > 8000 nM
MKN-7
  IC50: > 8000 nM
MONO-MAC-6
  IC50: 963 nM
NALM-6
  IC50: 417 nM
NB12
  IC50: > 8000 nM
NCI-H1417
  IC50: > 8000 nM
NCI-H1792
  IC50: > 8000 nM
NCI-H2196
  IC50: > 8000 nM
NCI-H2405
  IC50: > 8000 nM
NCI-H345
  IC50: > 8000 nM
NCI-H719
  IC50: > 8000 nM
NCI-H889
  IC50: > 8000 nM
OAW-42
  IC50: > 8000 nM
OE33
  IC50: > 8000 nM
OVCAR-8
  IC50: > 8000 nM
PA-1
  IC50: 1010 nM
PANC-03-27
  IC50: 5560 nM
PFSK-1
  IC50: 7190 nM
RMG-I
  IC50: > 8000 nM
RT-112
  IC50: > 8000 nM
Raji
  IC50: 5510 nM
SCLC-21H
  IC50: > 8000 nM
SF-295
  IC50: > 8000 nM
SNU-449
  IC50: > 8000 nM
T-24
  IC50: > 8000 nM
T47D
  IC50: > 8000 nM
8305C
  IC50: 2420 nM
A2058
  IC50: > 8000 nM
A-427
  IC50: 4600 nM
ARH-77
  IC50: 3060 nM
ASPC1
  IC50: > 8000 nM
BCPAP
  IC50: 3170 nM
BHT-101
  IC50: > 8000 nM
BOKU
  IC50: > 8000 nM
C3A
  IC50: 6530 nM
CAKI-1
  IC50: 6100 nM
CAL-27
  IC50: 4590 nM
CAL-62
  IC50: > 8000 nM
U-698-M
  IC50: 1020 nM
UACC-812
  IC50: > 8000 nM
WM-115
  IC50: > 8000 nM
COLO-679
  IC50: > 8000 nM
